US20220330549A1, “USE OF N-BENZYLBENZAMIDE-BASED COMPOUND AS HERBICIDE” (Northwest A&F University, priority 2020, published 2022)

How the values were obtained:
Type in all cases: in vivo
Barnyard grass [1] = assay: Herbicidal activity test for indoor pre-emergence soil treatment; parameters: key: level 1-9; higher = more weed remaining vs blank control; conditions: 150 g a.i./ha, visual inspection 21 days after treatment
Procedure, shortened: (§1)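 Pre-emergence soil spray per NY/T 1155.3-2006: weed seeds sown in moistened neutral sandy loam (organic content ≤2%), covered with 0.5–2.0 cm soil, then sprayed 24 h later with a water-diluted 10% emulsifiable concentrate at 150 g(a.i.)/ha. Visual rating after 21 days on a 1–9 scale.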

Piemarker [2] = assay: as above; parameters: key: level 1-9; higher = more weed remaining vs blank control; conditions: 150 g a.i./ha, visual inspection 21 days after treatment
Procedure, shortened: as §1

green bristlegrass [3] = assay: as above; parameters: key: level 1-9; higher = more weed remaining vs blank control; conditions: 150 g a.i./ha, visual inspection 21 days after treatment
Procedure, shortened: as §1

Amaranthus retroflexus [4] = assay: as above; parameters: key: 1-9 levels; higher = more weed remaining vs blank control; conditions: 150 g a.i./ha, visual inspection 21 days after treatment
Procedure, shortened: as §1

Digitaria sanguinalis [5] = assay: as above; parameters: key: 1-9 levels; higher = more weed remaining vs blank control; conditions: 150 g a.i./ha, visual inspection 21 days after treatment
Procedure, shortened: as §1

Humulus scandens [6] = assay: as above; conditions: 150 g a.i./ha, visual inspection 21 days after treatment
Procedure, shortened: as §1

Amaranthus retroflexus [7] = assay: Herbicidal activity test for indoor post-emergence spraying on stems and leaves; parameters: key: grade level by weed remaining vs blank control, e.g. 5 = 10.1-15%; conditions: 150 g a.i./ha, visual inspection 21 days after treatment
Procedure, shortened: (§2)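 Following national standard NY/T 1155.4-2006, seedlings raised in a greenhouse receive stem-and-leaf spraying after emergence; 21 days on, surviving weed is compared by eye with the blank control area and assigned a graded level (e.g., level 6 = 15.1–25%).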

Barnyard grass [8] = assay: as above; parameters: key: grade level by weed remaining vs blank control, e.g. 5 = 10.1-15%; conditions: 150 g a.i./ha, visual inspection 21 days after treatment
Procedure, shortened: as §2

Digitaria sanguinalis [9] = assay: as above; parameters: key: grade level by weed remaining vs blank control, e.g. 5 = 10.1-15%; conditions: 150 g a.i./ha, visual inspection 21 days after treatment
Procedure, shortened: as §2

Humulus scandens [10] = assay: as above; parameters: key: grade level by weed remaining vs blank control, e.g. 5 = 10.1-15%; conditions: 150 g a.i./ha, visual inspection 21 days after treatment
Procedure, shortened: as §2

Piemarker [11] = assay: as above; parameters: key: grade level by weed remaining vs blank control, e.g. 5 = 10.1-15%; conditions: 150 g a.i./ha, visual inspection 21 days after treatment
Procedure, shortened: as §2

green bristlegrass [12] = assay: as above; parameters: key: grade level by weed remaining vs blank control, e.g. 5 = 10.1-15%; conditions: 150 g a.i./ha, visual inspection 21 days after treatment
Procedure, shortened: as §2

Broadleaf weed = assay: Post-emergence herbicidal activity test in a paddy field; parameters: key: level scale; higher level = more weed left vs blank control; conditions: 150 g a.i./ha (penoxsulam control 250 g(a.i.)/h)
Procedure, shortened: (§3)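 Efficacy was visually estimated 15 and 30 days after spraying, grading weed coverage relative to an untreated neighbouring plot (level 2 = 0 to 2.5%, level 9 = 67.6 to 100%). Treatments were 150 g(a.i.)/ha from 10% emulsifiable concentrates applied at the 4-5 leaf rice stage, four repeats of 50 m^2 each.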

Cyperaceae = assay: as above; parameters: key: level scale; higher level = more weed left vs blank control; conditions: 150 g a.i./ha (penoxsulam control 250 g(a.i.)/h)
Procedure, shortened: as §3

Gramineae = assay: as above; parameters: key: level scale; higher level = more weed left vs blank control; conditions: 150 g a.i./ha (penoxsulam control 250 g(a.i.)/h)
Procedure, shortened: as §3

Acalypha australis = assay: Field test for weed control in a corn field; conditions: 150 g a.i./ha, after treatment
Procedure, shortened: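 Herbicidal activity against weeds was assessed in corn plots by the GB/T 17980.42-2000 method. Corn at the 2–5 leaf stage received water sprays of 10% emulsifiable concentrates at 150 g(a.i.)/ha, four repeats per treatment over 20 m^2. A 25% mesotrione oil dispersion was the reference. Damage symptoms and severity were rated on levels 1-9 relative to weeds in the blank control area.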

Amaranthus retroflexus [13] = assay: Field test for weed control in a corn field; conditions: 150 g a.i./ha, 30 days after treatment
Procedure, shortened: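 Post-emergence control of Amaranthus retroflexus was assessed in corn plots using the GB/T 17980.42-2000 method. Emulsifiable concentrates (10%) in water were applied by spraying at the 2- to 5-leaf crop stage on 20 m^2 plots, four replicates each, alongside a mesotrione 25% oil dispersion reference. Herbicidal activity was scored on 1-9 levels by weed amount relative to blank control areas.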

Barnyard grass [14] = assay: Field test for weed control in a corn field; conditions: 150 g a.i./ha, 30 days after treatment
Procedure, shortened: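 Herbicidal activity against barnyard grass was assessed in corn field plots of 20 m^2, with four replicates per treatment. Compounds were applied as water-diluted 10% emulsifiable concentrates at 150 g(a.i.)/ha at the 2-5 leaf corn stage, with 25% mesotrione oil dispersion as the reference agent. Damage was scored on a 1-9 scale against untreated blank plots.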

Chenopodium album = assay: Field test for weed control in a corn field; conditions: 150 g a.i./ha, after treatment
Procedure, shortened: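 Field weed-control testing in corn, run per GB/T 17980.42-2000, scored Chenopodium album on a 1-9 level scale, where each level matches a percentage range of weed remaining relative to the blank control area. Sprays of 10% emulsifiable concentrates in water delivered 150 g(a.i.)/ha at the corn 2-leaf to 5-leaf stage on 20 m^2 plots, four replicates each. Mesotrione 25% oil dispersion served as reference.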

Convolvulus arvensis = assay: Field test for weed control in a corn field; conditions: 150 g a.i./ha, after treatment
Procedure, shortened: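 Post-emergence herbicidal activity on Convolvulus arvensis was scored in a corn field on a 1-9 scale, based on symptoms and damage severity. Each level corresponds to the weed remaining as a percentage of the blank control area. Sprays of 10% emulsifiable concentrate at 150 g(a.i.)/ha went on at the corn 2–5 leaf stage, with four replicates of 20 m^2 per treatment.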

Digitaria sanguinalis [15] = assay: Field test for weed control in a corn field; conditions: 150 g a.i./ha, after treatment
Procedure, shortened: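 Field trial in a corn field following GB/T 17980.42-2000. Test compounds were formulated as 10% emulsifiable concentrates, diluted in water and sprayed post-emergence at 150 g(a.i.)/ha when corn had 2 to 5 leaves, with 4 replicates on 20 m^2 plots. Control of Digitaria sanguinalis was scored on a 1-9 scale based on weed damage relative to the untreated blank area.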

Portulaca oleracea = assay: Field test for weed control in a corn field; conditions: 150 g a.i./ha, after treatment
Procedure, shortened: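 Post-emergence weed control was evaluated in a corn field by the GB/T 17980.42-2000 method. Emulsifiable concentrates (10%) in water were applied as sprays at 150 g(a.i.)/ha at the 2-5 leaf corn stage, in four replicate 20 m^2 plots. A 25% mesotrione oil dispersion served as control agent. Effects were graded 1-9 relative to weed remaining in blank control areas.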

Solanum nigrum = assay: Field test for weed control in a corn field; conditions: 150 g a.i./ha, 30 days after treatment
Procedure, shortened: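 In a corn field trial based on GB/T 17980.42-2000, 10% emulsifiable concentrates diluted in water were sprayed at 150 g(a.i.)/ha at the 2 to 5 leaf stage of corn. Each treatment used 20 m^2 plots and was repeated 4 times, with 25% mesotrione oil dispersion as the reference agent. Solanum nigrum damage was scored on a 1-9 scale against blank control plots.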

goosegrass = assay: Field test for weed control in a corn field; conditions: 150 g a.i./ha, after treatment
Procedure, shortened: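 In this field trial in corn, run per GB/T 17980.42-2000, test agents prepared as 10% emulsifiable concentrates were applied in water as sprays at 150 g(a.i.)/ha at the 2- to 5-leaf corn stage. Each treatment covered 20 m^2 and was repeated 4 times. Goosegrass control was scored 1-9 relative to weed remaining in blank control areas.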

green bristlegrass [16] = assay: Field test for weed control in a corn field; conditions: 150 g a.i./ha, after treatment
Procedure, shortened: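 Herbicidal activity against green bristlegrass was assessed in corn field plots of 20 m^2 per GB/T 17980.42-2000. Test agents, formulated as 10% emulsifiable concentrates, were applied in water at 150 g(a.i.)/ha at the corn 2 leaves to 5 leaves stage, repeated 4 times. A 25% mesotrione oil dispersion served as the control agent, and weed damage was rated on levels 1-9.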

nutgrass flatsedge = assay: Field test for weed control in a corn field; conditions: 150 g a.i./ha, after treatment
Procedure, shortened: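 Herbicidal effect on nutgrass flatsedge was measured in a field planted with corn, using the GB/T 17980.42-2000 method. Emulsifiable concentrates (10%) in water were sprayed at 150 g(a.i.)/ha during the 2-leaf to 5-leaf corn stage, on 20 m^2 plots repeated 4 times. 25% mesotrione oil dispersion was the control agent. Activity was scored from 1 to 9 by weed remaining relative to blank control plots.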

Structure (SMILES) | Herbicidal Activity Barnyard grass (Barnyard grass [1]) | Herbicidal Activity Piemarker (Piemarker [2]) | Herbicidal Activity Green bristlegrass (green bristlegrass [3]) | Herbicidal Activity Amaranthus retroflexus (Amaranthus retroflexus [4]) | Herbicidal Activity Digitaria sanguinalis (Digitaria sanguinalis [5]) | Herbicidal Activity Humulus scandens (Humulus scandens [6]) | Herbicidal Activity Amaranthus retroflexus (Amaranthus retroflexus [7]) | Herbicidal Activity Barnyard grass (Barnyard grass [8]) | Herbicidal Activity Digitaria sanguinalis (Digitaria sanguinalis [9]) | Herbicidal Activity Humulus scandens (Humulus scandens [10]) | Herbicidal Activity Piemarker (Piemarker [11]) | Herbicidal Activity Green bristlegrass (green bristlegrass [12]) | Herbicidal activity 15 days after treatment Broadleaf weed (Broadleaf weed) | Herbicidal activity 30 days after treatment Broadleaf weed (Broadleaf weed) | Herbicidal activity 15 days after treatment Cyperaceae (Cyperaceae) | Herbicidal activity 30 days after treatment Cyperaceae (Cyperaceae) | Herbicidal activity 15 days after treatment Gramineae (Gramineae) | Herbicidal activity 30 days after treatment Gramineae (Gramineae) | Post-emergence weed control effect, Acalypha australis (Acalypha australis) | Post-emergence weed control effect, Amaranthus retroflexus (Amaranthus retroflexus [13]) | also measured
COc1ccccc1C(=O)NCc1cccc(Cl)c1 [Compound A09, N-(3-chlorobenzyl)-2-methoxybenzamide] | 1 | 1 | 2 (equivalent to 0 to 2.5% of the weed in the blank control area) | 2 (equivalent to 0 to 2.5% of the weed in the blank control area) | 2 (equivalent to 0 to 2.5% of the weed in the blank control area) | 3 (equivalent to 2.6 to 5% of the weed in the blank control area) | 1 | 1 | 1 | 1 | 1 | 2 (equivalent to 0 to 2.5% of the weed in the blank control area) | 2 (equivalent to 0 to 2.5% of the weed in the blank control area) | 2 (equivalent to 0 to 2.5% of the weed in the blank control area) | 1 | 2 (equivalent to 0 to 2.5% of the weed in the blank control area) | 2 (equivalent to 0 to 2.5% of the weed in the blank control area) | 2 (equivalent to 0 to 2.5% of the weed in the blank control area) | 2 (equivalent to 0 to 2.5% of the weed in the blank control area) | 1 | Post-emergence weed control effect, Barnyard grass (Barnyard grass [14]): 2 (equivalent to 0 to 2.5% of the weed in the blank control area); Post-emergence weed control effect, Chenopodium album (Chenopodium album): 1; Post-emergence weed control effect, Convolvulus arvensis (Convolvulus arvensis): 2 (equivalent to 0 to 2.5% of the weed in the blank control area); Post-emergence weed control effect, Digitaria sanguinalis (Digitaria sanguinalis [15]): 2 (equivalent to 0 to 2.5% of the weed in the blank control area); Post-emergence weed control effect, Portulaca oleracea (Portulaca oleracea): 1; Post-emergence weed control effect, Solanum nigrum (Solanum nigrum): 2 (equivalent to 0 to 2.5% of the weed in the blank control area); Post-emergence weed control effect, Goose grass (goosegrass): 1; Post-emergence weed control effect, Green bristlegrass (green bristlegrass [16]): 2 (equivalent to 0 to 2.5% of the weed in the blank control area); Post-emergence weed control effect, Nutgrass flatsedge (nutgrass flatsedge): 2 (equivalent to 0 to 2.5% of the weed in the blank control area)
COc1ccc(OC)c(C(=O)NCc2cccc(F)c2)c1 [Compound A22, N-(3-fluorobenzyl)-2,5-dimethoxybenzamide] | 1 | 2 (equivalent to 0 to 2.5% of the weed in the blank control area) | 2 (equivalent to 0 to 2.5% of the weed in the blank control area) | 2 (equivalent to 0 to 2.5% of the weed in the blank control area) | 1 | 4 (equivalent to 5.1 to 10% of the weed in the blank control area) | 1 | 1 | 1 | 1 | 1 | 2 (equivalent to 0 to 2.5% of the weed in the blank control area) | 2 (equivalent to 0 to 2.5% of the weed in the blank control area) | 1 | 2 (equivalent to 0 to 2.5% of the weed in the blank control area) | 1 | 1 | 1 | 2 (equivalent to 0 to 2.5% of the weed in the blank control area) | 1 | Post-emergence weed control effect, Barnyard grass (Barnyard grass [14]): 2 (equivalent to 0 to 2.5% of the weed in the blank control area); Post-emergence weed control effect, Chenopodium album (Chenopodium album): 1; Post-emergence weed control effect, Convolvulus arvensis (Convolvulus arvensis): 1; Post-emergence weed control effect, Digitaria sanguinalis (Digitaria sanguinalis [15]): 1; Post-emergence weed control effect, Portulaca oleracea (Portulaca oleracea): 1; Post-emergence weed control effect, Solanum nigrum (Solanum nigrum): 2 (equivalent to 0 to 2.5% of the weed in the blank control area); Post-emergence weed control effect, Goose grass (goosegrass): 2 (equivalent to 0 to 2.5% of the weed in the blank control area); Post-emergence weed control effect, Green bristlegrass (green bristlegrass [16]): 2 (equivalent to 0 to 2.5% of the weed in the blank control area); Post-emergence weed control effect, Nutgrass flatsedge (nutgrass flatsedge): 2 (equivalent to 0 to 2.5% of the weed in the blank control area)
